# Assay results from ChEMBL document CHEMBL1139693, “Structure-based design of a novel thiazolone scaffold as HCV NS5B polymerase allosteric inhibitors” (Bioorg Med Chem Lett, 2006).
# Assay: Inhibition of HCV NS5B polymerase
# Set-up: species or system Hepacivirus hominis
compound,measurement,value
Cc1ccc(S(=O)(=O)NC2=NC(=O)/C(=C/c3ccc(C)o3)S2)cc1,IC50,2 µM
